Active and inactive are the calls of the source. The rule behind the calls is not given here.
Key:
[1] = Modulation of Wnt/beta-catenin signaling pathway in human DLD-1 cells assessed as induction of AXIN2 accumulation incubated for 24 hrs by ELISA; assay type: cell-based; conditions: DLD-1, 24 h
[2] = biological target: Poly [ADP-ribose] polymerase 1 (Homo sapiens, UniProt P09874); assay: Inhibition of PARP-1 (unknown origin) using biotinylated NAD and NAD as substrate assessed as inhibition of auto-PARsylation incubated for 150 mins by TR-FRET assay
Sequence of Poly [ADP-ribose] polymerase 1 (P09874 whole entry): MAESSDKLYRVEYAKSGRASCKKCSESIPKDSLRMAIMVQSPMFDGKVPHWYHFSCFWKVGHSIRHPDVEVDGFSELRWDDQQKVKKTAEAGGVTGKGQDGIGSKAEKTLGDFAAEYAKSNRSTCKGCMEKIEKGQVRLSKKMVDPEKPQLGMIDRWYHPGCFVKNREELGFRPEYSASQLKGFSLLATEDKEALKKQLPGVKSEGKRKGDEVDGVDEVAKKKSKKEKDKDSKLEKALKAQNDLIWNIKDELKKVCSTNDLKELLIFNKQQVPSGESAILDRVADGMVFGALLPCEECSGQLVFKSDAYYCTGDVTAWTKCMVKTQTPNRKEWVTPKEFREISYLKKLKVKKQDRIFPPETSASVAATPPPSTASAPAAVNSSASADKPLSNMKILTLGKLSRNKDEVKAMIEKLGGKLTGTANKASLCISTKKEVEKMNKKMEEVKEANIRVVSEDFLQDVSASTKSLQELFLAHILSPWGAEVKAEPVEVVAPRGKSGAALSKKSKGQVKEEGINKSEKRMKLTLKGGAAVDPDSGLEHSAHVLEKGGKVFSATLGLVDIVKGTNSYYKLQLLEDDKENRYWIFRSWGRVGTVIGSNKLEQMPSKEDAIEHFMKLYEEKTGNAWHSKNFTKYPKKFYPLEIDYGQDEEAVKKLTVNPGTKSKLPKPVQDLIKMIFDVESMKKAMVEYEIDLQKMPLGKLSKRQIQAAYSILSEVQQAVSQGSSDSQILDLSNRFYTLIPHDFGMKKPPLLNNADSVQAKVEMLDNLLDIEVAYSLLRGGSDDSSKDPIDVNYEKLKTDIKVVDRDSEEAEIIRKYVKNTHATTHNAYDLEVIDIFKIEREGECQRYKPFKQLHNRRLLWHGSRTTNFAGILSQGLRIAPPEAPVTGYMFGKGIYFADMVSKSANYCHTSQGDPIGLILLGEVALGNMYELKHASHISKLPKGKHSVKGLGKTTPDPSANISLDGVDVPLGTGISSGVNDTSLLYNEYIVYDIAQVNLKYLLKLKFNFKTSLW

[3] = biological target: T1, Poly [ADP-ribose] polymerase tankyrase-2 (Homo sapiens, UniProt Q9H2K2); assay: Inhibition of TNKS2 (unknown origin)
T1 sequence (Q9H2K2 whole entry): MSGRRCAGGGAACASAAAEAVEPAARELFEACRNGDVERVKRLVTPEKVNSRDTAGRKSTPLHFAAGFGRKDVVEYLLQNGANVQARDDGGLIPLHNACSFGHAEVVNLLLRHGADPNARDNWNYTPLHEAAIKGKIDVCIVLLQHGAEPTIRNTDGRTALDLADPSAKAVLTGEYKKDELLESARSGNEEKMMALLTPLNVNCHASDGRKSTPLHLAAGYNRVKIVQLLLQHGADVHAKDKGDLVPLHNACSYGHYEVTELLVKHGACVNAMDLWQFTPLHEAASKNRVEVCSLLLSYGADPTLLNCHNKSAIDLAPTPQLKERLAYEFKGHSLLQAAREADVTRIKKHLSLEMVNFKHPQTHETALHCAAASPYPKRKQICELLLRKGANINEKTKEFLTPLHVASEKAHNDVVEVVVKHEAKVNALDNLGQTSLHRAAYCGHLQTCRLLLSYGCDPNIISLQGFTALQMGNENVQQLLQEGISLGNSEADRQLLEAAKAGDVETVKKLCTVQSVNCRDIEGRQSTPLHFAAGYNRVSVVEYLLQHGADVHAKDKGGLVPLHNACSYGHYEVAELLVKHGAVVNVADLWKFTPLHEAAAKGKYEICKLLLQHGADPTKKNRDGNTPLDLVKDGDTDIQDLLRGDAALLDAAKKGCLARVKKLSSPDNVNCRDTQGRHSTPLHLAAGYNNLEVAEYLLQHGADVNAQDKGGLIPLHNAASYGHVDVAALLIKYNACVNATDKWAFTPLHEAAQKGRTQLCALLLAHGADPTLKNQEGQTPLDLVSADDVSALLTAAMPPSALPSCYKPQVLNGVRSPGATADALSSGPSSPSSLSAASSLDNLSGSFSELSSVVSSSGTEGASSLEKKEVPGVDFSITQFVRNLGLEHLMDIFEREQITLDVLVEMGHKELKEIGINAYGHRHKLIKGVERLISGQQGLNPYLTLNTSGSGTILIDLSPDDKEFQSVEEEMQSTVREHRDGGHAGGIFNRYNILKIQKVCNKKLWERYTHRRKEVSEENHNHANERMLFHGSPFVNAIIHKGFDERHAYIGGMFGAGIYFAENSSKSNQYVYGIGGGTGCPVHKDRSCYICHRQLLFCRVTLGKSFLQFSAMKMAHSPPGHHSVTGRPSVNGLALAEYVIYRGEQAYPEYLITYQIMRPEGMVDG

[4] = biological target: Protein mono-ADP-ribosyltransferase PARP3 (Homo sapiens, UniProt Q9Y6F1); assay: Inhibition of N-terminal GST-fused human recombinant PARP3 (2 to 540 residues) expressed in Sf9 insect cells by chemiluminescence assay
Sequence of Protein mono-ADP-ribosyltransferase PARP3 (Q9Y6F1 whole entry, the tested form may be a part): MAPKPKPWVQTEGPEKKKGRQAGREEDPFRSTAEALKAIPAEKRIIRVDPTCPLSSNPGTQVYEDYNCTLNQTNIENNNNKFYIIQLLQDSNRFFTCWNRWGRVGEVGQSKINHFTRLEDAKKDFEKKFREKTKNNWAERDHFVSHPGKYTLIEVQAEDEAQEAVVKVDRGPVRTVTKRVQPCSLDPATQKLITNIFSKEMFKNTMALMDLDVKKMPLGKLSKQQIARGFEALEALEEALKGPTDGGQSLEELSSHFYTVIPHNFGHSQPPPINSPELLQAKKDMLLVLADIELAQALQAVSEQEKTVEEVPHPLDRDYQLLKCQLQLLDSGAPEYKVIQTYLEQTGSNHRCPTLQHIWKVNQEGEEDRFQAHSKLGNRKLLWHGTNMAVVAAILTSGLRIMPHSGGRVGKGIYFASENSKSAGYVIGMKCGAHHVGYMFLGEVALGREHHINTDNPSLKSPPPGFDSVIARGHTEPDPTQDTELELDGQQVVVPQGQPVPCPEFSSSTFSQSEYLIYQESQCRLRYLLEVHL

[5] = biological target: Protein mono-ADP-ribosyltransferase PARP15 (Homo sapiens, UniProt Q460N3); assay: Inhibition of N-terminal GST-tagged human recombinant PARP15 (221 to 444 residues) expressed in Escherichia coli by chemiluminescence assay
Sequence of Protein mono-ADP-ribosyltransferase PARP15 (Q460N3 whole entry, looked up, the tested form may be a part): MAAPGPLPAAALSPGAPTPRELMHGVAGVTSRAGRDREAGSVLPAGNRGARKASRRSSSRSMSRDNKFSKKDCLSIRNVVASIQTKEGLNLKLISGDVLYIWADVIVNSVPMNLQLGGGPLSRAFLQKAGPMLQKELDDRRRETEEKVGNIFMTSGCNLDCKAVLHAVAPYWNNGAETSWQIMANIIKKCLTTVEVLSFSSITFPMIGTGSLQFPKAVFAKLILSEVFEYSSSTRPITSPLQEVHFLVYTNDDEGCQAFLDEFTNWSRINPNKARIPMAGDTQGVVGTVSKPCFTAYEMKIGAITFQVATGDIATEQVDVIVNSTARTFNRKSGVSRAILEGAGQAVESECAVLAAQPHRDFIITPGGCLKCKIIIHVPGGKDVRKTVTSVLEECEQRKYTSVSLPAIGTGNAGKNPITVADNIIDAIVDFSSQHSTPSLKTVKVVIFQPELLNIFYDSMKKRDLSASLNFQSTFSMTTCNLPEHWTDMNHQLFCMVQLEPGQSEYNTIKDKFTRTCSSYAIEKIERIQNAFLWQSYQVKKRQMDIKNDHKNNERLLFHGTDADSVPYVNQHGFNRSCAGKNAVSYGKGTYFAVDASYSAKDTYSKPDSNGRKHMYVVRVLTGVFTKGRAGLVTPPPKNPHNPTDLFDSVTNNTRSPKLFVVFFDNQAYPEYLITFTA

HT55 = assay: Cytotoxicity against human HT55 cells assessed as reduction in cell growth incubated for 14 days by resazurin dye based assay; assay type: functional; conditions: time 14.0 day
SW480 = assay: Cytotoxicity against human SW480 cells assessed as reduction in cell growth at 0.01 to 10 uM incubated for 14 days by resazurin dye based assay; assay type: functional; conditions: dose 0.01-10 µM, time 14.0 day
DLD-1 = assay: Cytotoxicity against human DLD-1 cells assessed as reduction in cell growth at 0.01 to 10 uM incubated for 14 days by resazurin dye based assay; assay type: functional; conditions: dose 0.01-10 µM, time 14.0 day
SW-620 = assay: Cytotoxicity against human SW620 cells assessed as reduction in cell growth at 0.01 to 10 uM incubated for 14 days by resazurin dye based assay; assay type: functional; conditions: dose 0.01-10 µM, time 14.0 day
[6] = biological target: Sodium-dependent dopamine transporter (Homo sapiens, UniProt Q01959); assay: Inhibition of dopamine transporter (unknown origin); assay type: toxicity
Sequence of Sodium-dependent dopamine transporter (Q01959 whole entry): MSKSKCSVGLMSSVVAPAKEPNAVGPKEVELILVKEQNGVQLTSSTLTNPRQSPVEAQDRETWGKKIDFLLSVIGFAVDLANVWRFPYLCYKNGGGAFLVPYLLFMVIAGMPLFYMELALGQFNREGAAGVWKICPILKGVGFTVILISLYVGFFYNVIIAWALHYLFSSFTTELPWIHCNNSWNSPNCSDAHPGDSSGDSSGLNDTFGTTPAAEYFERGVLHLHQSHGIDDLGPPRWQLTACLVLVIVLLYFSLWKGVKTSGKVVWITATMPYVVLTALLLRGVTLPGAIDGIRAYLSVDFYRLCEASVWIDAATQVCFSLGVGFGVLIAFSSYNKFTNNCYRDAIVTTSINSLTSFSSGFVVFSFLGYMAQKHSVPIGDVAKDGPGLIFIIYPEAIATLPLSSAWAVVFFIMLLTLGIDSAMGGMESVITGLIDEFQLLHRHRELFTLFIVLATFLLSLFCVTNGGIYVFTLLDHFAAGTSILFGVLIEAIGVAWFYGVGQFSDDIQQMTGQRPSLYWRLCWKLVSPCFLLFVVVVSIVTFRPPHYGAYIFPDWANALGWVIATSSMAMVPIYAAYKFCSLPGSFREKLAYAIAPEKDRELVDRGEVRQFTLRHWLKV

Adenosine receptor A3 = Adenosine receptor A3 (Homo sapiens, UniProt P0DMS8); assay: Inhibition of A3 adenosine receptor (unknown origin); assay type: toxicity
Sequence of Adenosine receptor A3 (P0DMS8 whole entry): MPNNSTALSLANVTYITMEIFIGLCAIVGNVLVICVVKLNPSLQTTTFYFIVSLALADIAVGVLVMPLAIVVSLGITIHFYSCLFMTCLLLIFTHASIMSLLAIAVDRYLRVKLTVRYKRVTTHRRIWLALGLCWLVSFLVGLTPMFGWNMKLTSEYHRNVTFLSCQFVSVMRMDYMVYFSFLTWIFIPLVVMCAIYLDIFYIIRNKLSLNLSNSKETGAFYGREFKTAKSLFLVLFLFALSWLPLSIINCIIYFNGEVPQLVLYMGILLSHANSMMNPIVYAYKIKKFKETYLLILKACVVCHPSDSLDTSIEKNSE

[7] = Unbound fraction in mouse plasma; assay type: ADME, cell-free
[8] = Volume of distribution at steady state in rat; assay type: ADME; conditions: in vivo, read-out: Vdss
[9] = Volume of distribution at steady state in dog; assay type: ADME, Canis lupus familiaris; conditions: in vivo, read-out: Vdss
[10] = Volume of distribution at steady state in monkey; assay type: ADME, Macaca mulatta; conditions: rhesus monkey, in vivo; read-out: Vdss
[11] = Hepatic blood flow in rat; assay type: ADME
[12] = Half life in dog; assay type: ADME, Canis lupus familiaris; conditions: in vivo
[13] = In vivo inhibition of Wnt pathway in Hsd athymic nude mouse xenografted with human DLD1 cells assessed as increase in axin2 protein level in tumor at 10 to 30 mg/kg, po administered as single dose and measured after 2 to 8 hrs; assay type: functional, organism-based; conditions: DLD-1, dose 10-30 mg/kg, time 2-8 hrs
[14] = In vivo inhibition of Wnt pathway in Hsd athymic nude mouse xenografted with human DLD1 cells assessed as increase in tankyrase protein level in tumor at 10 to 30 mg/kg, po administered as single dose and measured after 18 hrs; assay type: functional, organism-based; conditions: DLD-1, dose 10-30 mg/kg
[15] = In vivo inhibition of Wnt pathway in Hsd athymic nude mouse xenografted with human DLD1 cells assessed as increase in axin2 protein level in tumor at 10 to 30 mg/kg, po administered as single dose and measured after 18 hrs; assay type: functional, organism-based; conditions: DLD-1, dose 10-30 mg/kg
[16] = In vivo inhibition of Wnt pathway in Hsd athymic nude mouse xenografted with human DLD1 cells assessed as reduction in beta-catenin level in tumor at 10 to 30 mg/kg, po administered as single dose and measured after 8 hrs; assay type: functional, organism-based; conditions: DLD-1, dose 10-30 mg/kg
COLO 320 = assay: Antitumor activity against human COLO 320 cells xenografted in CB17-SCID mouse assessed as tumor growth inhibition at 20 mg/kg, po, administered twice daily via gavage and measured twice weekly; assay type: functional, organism-based
[17] = Toxicity in CB17-SCID mouse xenografted with human COLO 320 cells assessed as drug tolerance at 15 mg/kg, po administered twice daily via gavage for 20 days; assay type: organism-based; conditions: in vivo, 480 h, time 20 day
[18] = Toxicity in CB17-SCID mouse xenografted with human COLO 320 cells assessed as reduction in body weight at 20 mg/kg, po administered twice daily via gavage for 20 days and measured twice weekly; assay type: organism-based; conditions: in vivo, 480 h, time 20 day
[19] = Toxicity in […] xenografted with human HT55 cells assessed as reduction in body weight at 20 mg/kg, po administered twice daily via gavage for 20 days and measured twice weekly; assay type: organism-based; conditions: in vivo, 480 h, time 20 day
[20] = Toxicity in mouse assessed as histopathological changes in gastrointestinal tract at 50 mg/kg, po administered twice daily via gavage; assay type: organism-based; conditions: in vivo

## Cc1ccc2c(=O)[nH]c(-c3ccc(C(C)(C)O)cc3)cn12
[1]
  EC50: 16 nM
[2]
  IC50: 928 nM
[3]
  IC50: 1.4 nM
[4]
  IC50: 110 nM
[5]
  IC50: > 10000 nM
HT55
  Activity: Dose-Dependent Effect
SW480
  Activity: inactive
DLD-1
  Activity: inactive
SW-620
  Activity: inactive
[6]
  IC50: 19000 nM
Adenosine receptor A3
  IC50: 10000 nM
[7]
  fraction unbound: 0.16
[8]
  Vd: 0.91 L/kg
[9]
  Vd: 2.17 L/kg
[10]
  Vd: 3.15 L/kg
[11]
  QH: 56%
[12]
  half-life: 35.6 min
[13]
  inhibition: Active
[14]
  inhibition: inactive
[15]
  inhibition: inactive
[16]
  inhibition: Active
COLO 320
  Activity: Active
[17]
  Activity: Non-Toxic
[18]
  Activity: Non-Toxic
[19]
  Activity: Non-Toxic
[20]
  Activity: Toxic

Source: ChEMBL document CHEMBL5226325, “Optimization of a Screening Hit toward M2912, an Oral Tankyrase Inhibitor with Antitumor Activity in Colorectal Cancer Models” (J Med Chem, 2021)
